Results reported in ChEMBL document CHEMBL1201862, “PubChem BioAssay data set” (2004).
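All cell lines were grown in 96-well plates and treated with compound for 48 hours. Here, GI50 denotes the concentration required for 50% inhibition of growth.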 Activity calls are given as the source filed them. No stated cut-off is given here; in the data, active = GI50 up to about 1.1 µM and inactive = higher.

How the values were obtained:
Test in all cases: inhibition of tumour cell growth, NCI panel, 48 h
[1] = system: NCI-H226
[2] = system: SN12C
[3] = system: SF-539
[4] = system: CAKI-1
[5] = system: DMS-114
[6] = system: ACHN
[7] = system: M19-MEL
[8] = system: KM-20L2
[9] = system: LXFL 529
[10] = system: COLO 205
[11] = system: DMS-273
[12] = system: SNB-19
[13] = system: MDA-MB-231
[14] = system: T47D
[15] = system: RPMI-8226
[16] = system: MCF7
[17] = system: PC-3
[18] = system: MDA-N
[19] = system: Hs-578T
[20] = system: XF498

Measured: GI50

O=c1ccc2nc3cc(Br)ccc3sc-2c1
inactive: [1] > 100 µM | [2] > 100 µM | [3] > 100 µM | [4] 32.3 µM | [5] > 100 µM | [6] 57 µM | [7] 55.1 µM | [8] > 100 µM | [9] 89.7 µM | [10] > 100 µM | [11] > 100 µM | [12] > 100 µM

CCCCC(=O)c1c(O)nc2sccn2c1=O
inactive: [1] > 10 µM | [2] > 10 µM | [3] > 10 µM | [4] > 10 µM | [6] > 10 µM | [13] > 10 µM | [10] > 10 µM | [14] > 10 µM | [15] > 10 µM | [16] > 10 µM | [17] > 10 µM | [12] > 10 µM | [18] > 10 µM | [19] > 10 µM

c1ccc2c(c1)SP1Sc3ccccc3P21 (stereo not drawn)
inactive: [1] > 45.7 µM | [2] 63.4 µM | [3] > 100 µM | [5] > 79.3 µM | [20] > 100 µM | [7] > 100 µM | [8] > 78 µM | [10] > 100 µM | [11] > 100 µM | [15] 59.6 µM | [16] > 100 µM | [12] > 28.2 µM

CN(C)CCCNC(=O)N/N=C/c1ccccn1
inactive: [2] > 10 µM | [3] > 10 µM | [6] > 10 µM | [13] > 10 µM | [10] > 10 µM | [14] > 10 µM | [15] > 10 µM | [16] > 10 µM | [17] > 10 µM | [18] > 10 µM | [19] > 10 µM

CC1(C)OC2CC(=O)OCC23C1CC(=O)C1(C)C3CCC2(C)C(c3ccoc3)OC(=O)C3OC321 (stereo not drawn)
inactive: [1] > 125 µM | [2] > 39.5 µM | [3] > 117 µM | [4] 16.1 µM | [5] > 125 µM | [20] > 125 µM | [7] > 125 µM | [8] > 125 µM | [10] > 125 µM | [11] > 125 µM | [15] > 125 µM | [16] > 70.3 µM | [12] > 125 µM

COC1CCC(O)C(CO)O1 (stereo not drawn)
inactive: [2] > 100 µM | [3] 41.2 µM | [6] > 100 µM | [20] > 100 µM | [7] 60.7 µM | [8] > 100 µM | [9] 50.6 µM

[O-][n+]1c2c([n+]([O-])c3ccccc31)-c1cccc3cccc-2c13
inactive: [1] > 100 µM | [2] > 100 µM | [6] > 100 µM | [13] 33 µM | [10] > 100 µM | [14] > 100 µM | [16] > 100 µM | [17] > 100 µM | [12] > 100 µM | [18] > 100 µM | [19] 32.9 µM

NC(Cc1ccc(OCc2ccccc2)cc1)C(=O)NC(Cc1ccccc1)C(=O)Oc1c(Cl)c(Cl)c(Cl)c(Cl)c1Cl (stereo not drawn)
inactive: [1] 13.2 µM | [2] 17.3 µM | [3] 16.7 µM | [4] 16.7 µM | [6] 16.5 µM | [13] 13 µM | [10] 14.6 µM | [14] 17.9 µM | [15] 40.9 µM | [16] 19 µM | [17] 17.7 µM | [12] 17.7 µM | [18] 12.7 µM | [19] 14 µM

Nc1nc(Cl)nc2c1ncn2C1CCC(CO)O1 (stereo not drawn)
inactive: [1] > 100 µM | [2] 95.7 µM | [4] > 100 µM | [10] > 100 µM | [14] > 100 µM | [15] > 100 µM | [16] > 100 µM | [17] > 100 µM | [12] > 100 µM | [18] > 100 µM | [19] > 100 µM

Nc1ccc2c(c1)C(=O)N(O)C2=O
inactive: [1] > 100 µM | [2] > 100 µM | [3] > 100 µM | [5] > 100 µM | [6] > 100 µM | [20] > 100 µM | [7] > 100 µM | [8] > 100 µM | [9] > 100 µM | [12] > 100 µM

COc1cc2c(cc1OC)CCN=C2
inactive: [1] > 100 µM | [2] > 100 µM | [4] > 100 µM | [13] > 100 µM | [10] > 100 µM | [14] > 100 µM | [15] > 100 µM | [16] > 100 µM | [17] > 100 µM | [12] > 100 µM | [18] > 100 µM | [19] > 100 µM

Cc1ccc2c(c1)C(=O)N(N(C)C)CC(=O)N2
inactive: [1] > 100 µM | [3] > 100 µM | [4] > 100 µM | [5] > 100 µM | [6] > 100 µM | [20] > 100 µM | [7] > 100 µM | [9] > 100 µM | [10] > 100 µM | [11] > 100 µM | [15] > 100 µM | [12] > 100 µM

O=C(O)C12CCCC(CCC1)C2
inactive: [2] > 100 µM | [3] > 100 µM | [4] > 100 µM | [5] > 100 µM | [6] > 100 µM | [20] > 100 µM | [9] > 100 µM | [10] > 100 µM | [11] > 100 µM | [15] > 100 µM | [12] > 100 µM

CN(C)C(=O)OCOC(=O)N(C)C
inactive: [1] > 100 µM | [2] > 100 µM | [3] > 100 µM | [4] > 100 µM | [5] > 100 µM | [20] > 100 µM | [7] > 100 µM | [8] > 100 µM | [10] > 100 µM | [11] > 100 µM | [15] > 100 µM | [16] > 100 µM | [12] > 100 µM

CC(C)(C)[Si](C)(C)OCC1OC(n2cnc3c(N)ncnc32)CC1O (stereo not drawn)
inactive: [1] 53.1 µM | [2] > 100 µM | [4] 86.9 µM | [13] 52.5 µM | [10] 91.6 µM | [14] 41.6 µM | [15] 52.8 µM | [16] > 100 µM | [17] 53.1 µM | [12] > 100 µM | [18] > 100 µM | [19] 55.5 µM

Cc1cccc(C(C)C)c1NC(=O)CC1Sc2ccccc2NC1=O (stereo not drawn)
inactive: [1] 77.8 µM | [2] > 100 µM | [3] > 100 µM | [4] > 100 µM | [5] 23.4 µM | [6] > 100 µM | [20] > 100 µM | [8] > 100 µM | [9] 79.1 µM | [10] > 100 µM | [11] 45.8 µM | [15] 57.4 µM | [12] > 100 µM
